Data as given in US20070274916A1, “Method for Identifying Compounds that Affect Expression of Tryptophan Hydroxylase Isoform 2” (priority 2003, published 2007).
“Also recorded” adds a separate entry of the source.

What was measured:
Assay type in all cases: in vivo, mouse
TPH2 mRNA [1] = test: TPH2 mRNA in murine DRN by in situ hybridization histochemistry; details: for reduction of TPH2 mRNA levels in DRN (densitometry): ovariectomized female mice, FIG. 13B
TPH2 mRNA [2] = test: TPH2 mRNA levels in murine raphe slice preparation of ovariectomized female mice by real-time RT-PCR
From the text: Female mice (13 to 16 wks of age) were ovariectomized (C57BL/6s from Charles River; ER Knockout animals from Taconic). Animals were fed a soy-free rodent chow and allowed a minimum of one week to recuperate from surgery and shipping. […] Approximately six hours following the fourth dose, mice were deeply anesthetized with ketamine/xylazine and brains were removed from the skull, placed ventral side up in a mouse brain block on ice, and ice-cold razor blades were inserted into the block at 1 mm intervals. The caudal extent of the hypothalamus was used as an anatomical marker for the placement of the first razor blade, and 4 blades were placed in sequential slots, caudally. The four sections were examined and the two that encompassed the greatest extent of the dorsal raphe were placed in a tube containing […] (Ambion, Austin, Tex.) and placed at 4° C. overnight. Brain slices were removed from […] after 24 hours and stored at −80° C. in fresh tubes.
Two TPH2 primer and probe sets were generated for use in detecting TPH2 by real-time RT-PCR. Murine TPH2 forward primers were mTPH2-514F and mTPH2-1270F, their corresponding sequences are 5′-[…]-3′ (SEQ ID NO:7; corresponding to nucleotides 514 to 535 of the nucleotide sequence encoding TPH2) and 5′-[…]-3′ (SEQ ID NO:8; corresponding to nucleotides 1270 to 1290 of the nucleotide sequence encoding TPH2), respectively. The murine TPH2 reverse primers were mTPH2-585R and mTPH2-1344R, their corresponding sequences are 5′-[…]-3′ (SEQ ID NO:9; corresponding to nucleotides 567 to 585 of the nucleotide sequence encoding TPH2) and 5′-[…]-3′ (SEQ ID NO:10; corresponding to nucleotides 1324 to 1344 of the nucleotide sequence encoding TPH2), respectively. The murine TPH2 probes were mTPH2-565T and mTPH2-1292T, their corresponding sequences are: 5′-[…]-3′ (SEQ ID NO:11; corresponding to nucleotides 539 to 565 of the nucleotide sequence encoding TPH2) and 5′-[…]-3′ (SEQ ID NO:12; corresponding to nucleotides 1292 to 1317 of the nucleotide sequence encoding TPH2), respectively. The probes were labeled at the 5′ end with FAM and the 3′ end with TAMRA.
Isolation of total RNA from mouse raphe slices for real-time PCR analysis using the TAQMAN ABI PRISMS 7700 Detection System, Applied Biosystems, Foster City, Calif. was as follows. Samples were stored in […] at 4° C. overnight followed by removal of […] and storage at −80° C. until isolation of the total RNA (2 slices weigh 25 to 50 mg). Slices were removed from −80° C. and placed in 1.0 mL TRIZOL Reagent in FASTPREP processing tubes. Slices were homogenized with one pass at setting 6 for 30 seconds in FASTPREP 120 homogenizer using LYSING MATRIX D tubes with bead matrix followed by 20 seconds at setting 6 after all samples had been processed. Samples were set at room temperature for 5 minutes to allow for complete dissociation of nucleoprotein complexes followed by centrifugation of the samples at 12,000×g for 5 minutes at 4° C. Homogenates were transferred to 1.5 mL; microcentrifuge tubes and 100 μL BCP (Bromo-3-chloropropane) was added. Samples were vortexed for 15 seconds and set at room temperature for 2 to 3 minutes. Samples were centrifuged at 12,000×g for 15 minutes at 4° C. The aqueous layer was removed and placed in a new RNAse-free sterile 1.5 mL microcentrifuge tube. Five μL of 5 mg/μL glycogen was added to each sample and the samples were vortexed. Five hundred μL of isopropanol was added to each sample. The samples were vortexed for 15 seconds, set at room temperature 10 minutes, followed by centrifugation at 12,000×g for 15 minutes at 4° C. Supernatants were decanted and pellets washed with 500 μL ice cold 75% ethanol.

TPH1 mRNA [3] = test: TPH1 mRNA in murine DRN by in situ hybridization histochemistry (TPH1-892 antisense riboprobe); details: 0.2 mpk s.c. once daily for four days; ovariectomized mice; FIG. 5A
TPH1 mRNA [4] = test: TPH1 message levels in ER-β knockout mice
Description: Female mice (13 to 16 wks of age) were ovariectomized (C57BL/6s from Charles River; ER Knockout animals from Taconic). Animals were fed a soy-free rodent chow and allowed a minimum of one week to recuperate from surgery and shipping. Mice were dosed subcutaneously in the morning (once daily for 4 days) with 0.1 cc of vehicle (sesame oil) or compound (3, 10, or 20 mpk dexamethasone, RU486, estradiol, or prednisolone as indicated). Approximately six hours following the fourth dose, mice were deeply anesthetized with ketamine/xylazine and brains were removed from the skull, placed ventral side up in a mouse brain block on ice, and ice-cold razor blades were inserted into the block at 1 mm intervals. The caudal extent of the hypothalamus was used as an anatomical marker for the placement of the first razor blade, and 4 blades were placed in sequential slots, caudally. The four sections were examined and the two that encompassed the greatest extent of the dorsal raphe were placed in a tube containing RNALATER (Ambion, Austin, Tex.) and placed at 4° C. overnight. Brain slices were removed from RNALATER after 24 hours and stored at −80° C. in fresh tubes.

[5] = Uterine weight of ovariectomized female mice; details: FIG. 12

C[C@@H]1C[C@H]2[C@@H]3CCC4=CC(=O)C=C[C@]4(C)[C@@]3(F)[C@@H](O)C[C@]2(C)[C@@]1(O)C(=O)CO [dexamethasone]
reduction of TPH2 mRNA levels in DRN (densitometry) (TPH2 mRNA [1]; 3 mg/kg s.c. once daily for four days): 28%
reduction of TPH2 mRNA levels in DRN (densitometry) (TPH2 mRNA [1]; 10 mg/kg s.c. once daily for four days): 36%
reduction in TPH2 mRNA levels (TPH2 mRNA [2]; 0.1 mg/kg s.c. once daily for four days, FIG. 14): 23%
reduction in TPH2 message levels (TPH2 mRNA [2]; 1 mg/kg once daily for four days, FIG. 14): 30%
reduction in TPH2 mRNA levels (TPH2 mRNA [2]; 3 mg/kg s.c. once daily for four days, FIG. 14): 44%
reduction in TPH2 mRNA levels (TPH2 mRNA [2]; dexamethasone 3 mg/kg once daily for four days, FIG. 9): 40%

CC#C[C@]1(O)CC[C@H]2[C@@H]3CCC4=CC(=O)CCC4=C3[C@@H](c3ccc(N(C)C)cc3)C[C@@]21C [mifepristone]
effect on TPH2 mRNA expression compared to vehicle (TPH2 mRNA [2]; RU486 10 mpk once daily, TPH2-514 or TPH2-1270 primer/probe set, FIG. 7, 10 mg/kg): decrease; also recorded: significant reduction
effect on TPH2 mRNA expression (TPH2 mRNA [2]; RU486 20 mpk once daily, TPH2-514 primer/probe set, FIG. 8, 20 mg/kg): further reduction; also recorded: significant reduction
glucocorticoid agonist/antagonist character shown by TPH2 mRNA expression (TPH2 mRNA [2]; alone and mixed with dexamethasone, Example 2): mixed or partial agonist
effect on the dexamethasone reduction of TPH2 mRNA levels (TPH2 mRNA [2]; co-administered with 3 mg/kg dexamethasone, ovariectomized female mice, FIG. 9, 3 mg/kg): blocked; also recorded: antagonizes
reduction in TPH2 mRNA levels (TPH2 mRNA [2]; mifepristone alone, 20 mg/kg, FIG. 9): 28%

C[C@]12CC[C@@H]3c4ccc(O)cc4CC[C@H]3[C@@H]1CC[C@@H]2O [17β-estradiol]
effect on TPH2 mRNA in the DRN (TPH2 mRNA [1]; 0.2 mpk s.c. once daily for four days, ovariectomized mice, TPH2c riboprobe, FIG. 5B): no apparent effect
TPH1 mRNA induction in the DRN (TPH1 mRNA [3]): 3 fold
effect on TPH1 message levels (TPH1 mRNA [4]): no effect
uterine weight measurements [5]: dramatically induced
effect on expression of TPH2 mRNA in raphe slice (TPH2 mRNA [2]; 0.025 to 0.2 mpk s.c. once daily for four days, FIG. 4C): no apparent effect
